According to patent US8222219B2, “Glucopyranoside compound” (Mitsubishi Tanabe Pharma Corporation, priority 2003, dated 2012):

Key:
Sprague-Dawley (SD) rats = assay: Urinary glucose excretion test in rats; assay type: in vivo, rat; conditions: male SD rats, 30 mg/kg oral gavage, urine collected for 24 hours; daily amount of glucose excreted per individual
Description: 2. Urinary Glucose Excretion Test in Rats Test Compounds:
Compounds described in the above examples were used for the urinary glucose excretion test in rats.
6-week-old male Sprague-Dawley (SD) rats were housed in individual metabolic cages with free access to food and water from 2 days prior to the experiment. On the morning of the experiment, rats were administered vehicle (0.2% carboxymethyl cellulose solution containing 0.2% Tween80) or test compounds (30 mg/kg) by oral gavage at a volume of 10 ml/kg. Then, urine of the rat was collected for 24 hours, and the urine volume was measured. Subsequently, the glucose concentration in urine was quantified using the enzymatic assay kit and the daily amount of glucose excreted in urine per individual was calculated.

human SGLT2 = target: T1, human SGLT2 (Homo sapiens, UniProt P31639); assay: Assay for SGLT2 inhibition (14C-AMG uptake in CHOK1 cells expressing human SGLT2); assay type: cell-based; conditions: CHOK1 cells expressing human SGLT2; 14C-AMG uptake 0.5 mM, 2 hours at 37° C.; read-out: IC50
T1 construct: expressed in transfected cells; host or cells: CHOK1 (CHO-K1) cells, kept under Geneticin selection
T1 sequence (P31639 1-672): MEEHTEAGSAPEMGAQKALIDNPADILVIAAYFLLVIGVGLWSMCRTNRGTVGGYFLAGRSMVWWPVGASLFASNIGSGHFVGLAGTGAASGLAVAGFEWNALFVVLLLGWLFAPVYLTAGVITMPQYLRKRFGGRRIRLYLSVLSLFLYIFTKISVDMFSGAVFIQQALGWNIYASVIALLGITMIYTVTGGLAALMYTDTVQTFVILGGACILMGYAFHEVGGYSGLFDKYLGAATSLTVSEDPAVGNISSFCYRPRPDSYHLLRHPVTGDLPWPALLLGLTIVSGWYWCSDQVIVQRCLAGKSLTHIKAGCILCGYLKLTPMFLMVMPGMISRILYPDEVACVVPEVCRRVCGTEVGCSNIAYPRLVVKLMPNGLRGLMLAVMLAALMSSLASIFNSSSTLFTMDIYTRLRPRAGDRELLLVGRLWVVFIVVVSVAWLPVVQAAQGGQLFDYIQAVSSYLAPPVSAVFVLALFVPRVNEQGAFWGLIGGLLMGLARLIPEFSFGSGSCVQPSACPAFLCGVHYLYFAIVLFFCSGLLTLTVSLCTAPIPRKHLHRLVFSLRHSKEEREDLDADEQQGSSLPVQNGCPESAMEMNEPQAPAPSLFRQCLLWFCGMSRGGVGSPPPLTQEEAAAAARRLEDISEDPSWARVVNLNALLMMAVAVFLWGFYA
Description: 1. Assay for SGLT2 Inhibition
Compounds described in the above examples were used for the SGLT2 inhibition assay.
CHOK1 cells expressing human SGLT2 were seeded in 24-well plates at a density of 400,000 cells/well in F-12 nutrient mixture (Ham's F-12) containing 10% fetal bovine serum, 400 μg/ml Geneticin, 50 units/ml sodium penicillin G (Gibco-BRL) and 50 μg/ml streptomycin sulfate. […] Test compounds were dissolved in DMSO. The final concentration of DMSO was 0.5%. The transport reaction was initiated by addition of 50 μl [^14C]-methyl-α-D-glucopyranoside (^14C-AMG) solution (final concentration, 0.5 mM). After incubation for 2 hours at 37° C., the uptake was stopped by aspiration of the incubation mixture, the cells were washed three times with ice-cold PBS. Then, cells were solubilized with 0.3 N NaOH and aliquots were taken for determination of radioactivity by a liquid scintillation counter. Nonspecific AMG uptake was defined as that which occurred in the presence of 100 μM of phlorizin, a specific inhibitor of sodium-dependent glucose cotransporter. Specific uptake was normalized for the protein concentrations measured by the method of Bradford.

Structure (SMILES)	Urinary glucose (Sprague-Dawley (SD) rats)	IC50 (human SGLT2) [nM]
Cc1ccc([C@@H]2O[C@H](CO)[C@@H](O)[C@H](O)[C@H]2O)cc1Cc1ccc(-c2ccc(F)nc2)s1 [Example 120, 1-(β-D-glucopyranosyl)-3-(5-(6-fluoro-3-pyridyl)-2-thienylmethyl)-4-methylbenzene]	A (A≧2000 mg)	3.4
N#Cc1cccc(-c2ccc(Cc3cc([C@@H]4O[C@H](CO)[C@@H](O)[C@H](O)[C@H]4O)ccc3Cl)s2)c1 [Example 123, 1-(β-D-glucopyranosyl)-4-chloro-3-(5-(3-cyanophenyl)-2-thienylmethyl)benzene]	A (A≧2000 mg)	1.4
Cc1ccc([C@@H]2O[C@H](CO)[C@@H](O)[C@H](O)[C@H]2O)cc1Cc1ccc(-c2cccc(C#N)c2)s1 [Example 127, 1-(β-D-glucopyranosyl)-3-(5-(3-cyanophenyl)-2-thienylmethyl)-4-methylbenzene]	A (A≧2000 mg)	1.3
CCc1cccc(-c2ccc(Cc3cc([C@@H]4O[C@H](CO)[C@@H](O)[C@H](O)[C@H]4O)ccc3C)s2)c1 [Example 140]	B (2000 mg>B≧1000 mg)	5.9
COc1ccc(-c2ccc(Cc3cc([C@@H]4O[C@H](CO)[C@@H](O)[C@H](O)[C@H]4O)ccc3C)s2)cc1 [Example 144]	B (2000 mg>B≧1000 mg)	4.1
Cc1ccc([C@@H]2O[C@H](CO)[C@@H](O)[C@H](O)[C@H]2O)cc1Cc1ccc(-c2cccc(F)n2)s1 [Example 146]	A (A≧2000 mg)	2.2
Cc1ccc([C@@H]2O[C@H](CO)[C@@H](O)[C@H](O)[C@H]2O)cc1Cc1ccc(-c2ccc(F)s2)s1 [Example 148]	B (2000 mg>B≧1000 mg)	2.8
Cc1ccc([C@@H]2O[C@H](CO)[C@@H](O)[C@H](O)[C@H]2O)cc1Cc1ccc(-c2ccc(C#N)cc2)s1 [Example 151]	B (2000 mg>B≧1000 mg)	2.5
OC[C@H]1O[C@@H](c2ccc(Cl)c(Cc3ccc(-c4cccc(F)n4)s3)c2)[C@H](O)[C@@H](O)[C@@H]1O [Example 156]	A (A≧2000 mg)	1.1
OC[C@H]1O[C@@H](c2ccc(Cl)c(Cc3ccc(-c4ccc(F)nc4)s3)c2)[C@H](O)[C@@H](O)[C@@H]1O [Example 168, 1-(β-D-glucopyranosyl)-4-chloro-3-(5-(6-fluoro-3-pyridyl)-2-thienylmethyl)benzene]	A (A≧2000 mg)	2.3
OC[C@H]1O[C@@H](n2cc(Cc3cc4ccccc4s3)c3ccccc32)[C@H](O)[C@@H](O)[C@@H]1O [Example 195, 1-(β-D-glucopyranosyl)-3-(benzo[b]thiophen-2-ylmethyl)indole]	B (2000 mg>B≧1000 mg)	
Cc1ccc([C@@H]2O[C@H](CO)[C@@H](O)[C@H](O)[C@H]2O)cc1Cc1cc2ccc(OC(F)F)cc2s1 [Example 224]		5.9
Cc1ccc([C@@H]2O[C@H](CO)[C@@H](O)[C@H](O)[C@H]2O)cc1Cc1ccc(-c2cccc(C#N)n2)s1 [Example 225]		1.5
Cc1ccc([C@@H]2O[C@H](CO)[C@@H](O)[C@H](O)[C@H]2O)cc1Cc1ccc(-n2cccn2)s1 [Example 227]		3.2
CCOc1ccc2cc(Cc3cc([C@@H]4O[C@H](CO)[C@@H](O)[C@H](O)[C@H]4O)ccc3C)sc2c1 [Example 228]		3.6
COc1ccc2sc(Cc3cc([C@@H]4O[C@H](CO)[C@@H](O)[C@H](O)[C@H]4O)ccc3C)cc2c1 [Example 229]		2.7
Cc1ccc([C@@H]2O[C@H](CO)[C@@H](O)[C@H](O)[C@H]2O)cc1Cc1cc2cc(OCCF)ccc2s1 [Example 230]		4
CCOc1ccc2sc(Cc3cc([C@@H]4O[C@H](CO)[C@@H](O)[C@H](O)[C@H]4O)ccc3C)cc2c1 [Example 231]		3.5
CCOc1ccc(-c2ccc(Cc3cc([C@@H]4O[C@H](CO)[C@@H](O)[C@H](O)[C@H]4O)ccc3C)s2)cc1 [Example 232]		4

Structure (SMILES)	Urinary glucose (Sprague-Dawley (SD) rats)	IC50 (human SGLT2) [nM]
Cc1ccc([C@@H]2O[C@H](CO)[C@@H](O)[C@H](O)[C@H]2O)cc1Cc1cc2ccc(OCCF)cc2s1 [Example 235]		2.6
Cc1ccc([C@@H]2O[C@H](CO)[C@@H](O)[C@H](O)[C@H]2O)cc1Cc1ccc(-c2ccc(OC(F)F)cc2)s1 [Example 237]		2.8
COc1ccc2cc(Cc3cc([C@@H]4O[C@H](CO)[C@@H](O)[C@H](O)[C@H]4O)ccc3C)sc2c1 [Example 238]		1.6
OC[C@H]1O[C@@H](c2ccc(Cl)c(Cc3ccc(-c4ncco4)s3)c2)[C@H](O)[C@@H](O)[C@@H]1O [Example 240]		1.2
Cc1ccc([C@@H]2O[C@H](CO)[C@@H](O)[C@H](O)[C@H]2O)cc1Cc1ccc(-c2ncco2)s1 [Example 241]		1
Cc1csc(-c2ccc(Cc3cc([C@@H]4O[C@H](CO)[C@@H](O)[C@H](O)[C@H]4O)ccc3Cl)s2)n1 [Example 244]		1.2
Cc1cc(-c2ccc(Cc3cc([C@@H]4O[C@H](CO)[C@@H](O)[C@H](O)[C@H]4O)ccc3C)s2)on1 [Example 246]		6.4
OC[C@H]1O[C@@H](c2ccc(F)c(Cc3ccc(-c4cccc(F)n4)s3)c2)[C@H](O)[C@@H](O)[C@@H]1O [Example 248]		5.1
O=Cc1ccc(-c2ccc(Cc3cc([C@@H]4O[C@H](CO)[C@@H](O)[C@H](O)[C@H]4O)ccc3Cl)s2)cc1 [Example 249, 1-(β-D-Glucopyranosyl)-4-chloro-3-(5-(4-formylphenyl)-2-thienylmethyl)benzene]		4.3
COc1c(Cc2ccc(Cl)s2)cc([C@@H]2O[C@H](CO)[C@@H](O)[C@H](O)[C@H]2O)c2ccccc12 [Example 250, 1-(β-D-Glucopyranosyl)-3-(5-chloro-2-thienylmethyl)-4-methoxynaphthalene]		4.2
Cc1nc(-c2ccc(Cc3cc([C@@H]4O[C@H](CO)[C@@H](O)[C@H](O)[C@H]4O)ccc3Cl)s2)cs1 [Example 252]		1.4
Cc1cc(-c2ccc(Cc3cc([C@@H]4O[C@H](CO)[C@@H](O)[C@H](O)[C@H]4O)ccc3Cl)s2)ccn1 [Example 253]		1.6
OC[C@H]1O[C@@H](c2cc(Cc3ccc(-c4cccc(F)n4)s3)c(F)c3ccccc23)[C@H](O)[C@@H](O)[C@@H]1O [Example 255]		6.5
OC[C@H]1O[C@@H](c2ccc(Cl)c(Cc3ccc(-c4ncc(F)s4)s3)c2)[C@H](O)[C@@H](O)[C@@H]1O [Example 256]		3.1
OCc1ccc(-c2ccc(Cc3cc([C@@H]4O[C@H](CO)[C@@H](O)[C@H](O)[C@H]4O)ccc3Cl)s2)cc1 [Example 264, 1-(β-D-glucopyranosyl)-4-chloro-3-(5-(4-hydroxymethylphenyl)-2-thienylmethyl)benzene]		1.5
COc1c(Cc2ccc(-c3ccccc3)s2)cc([C@@H]2O[C@H](CO)[C@@H](O)[C@H](O)[C@H]2O)c2ccccc12 [Example 265, 1-(β-D-glucopyranosyl)-3-(5-phenyl-2-thienylmethyl)-4-methoxynaphthalene]		3.4
COc1c(Cc2ccc(-c3ncccn3)s2)cc([C@@H]2O[C@H](CO)[C@@H](O)[C@H](O)[C@H]2O)c2ccccc12 [Example 266]		3.2
COc1c(Cc2ccc(-c3cccc(C#N)c3)s2)cc([C@@H]2O[C@H](CO)[C@@H](O)[C@H](O)[C@H]2O)c2ccccc12 [Example 267]		1.5
COc1c(Cc2ccc(-c3cccc(F)n3)s2)cc([C@@H]2O[C@H](CO)[C@@H](O)[C@H](O)[C@H]2O)c2ccccc12 [Example 268]		2.5
